Experimental data as given in ChEMBL document CHEMBL5370606, “Diterpenoids from Euphorbia fischeriana with Kv1.3 Inhibitory Activity” (J Nat Prod, 2023).

Legend:
[1] = biological target: T1, Potassium voltage-gated channel subfamily A member 3 (Homo sapiens, UniProt P22001); assay: Inhibition of Kv1.3 (unknown origin) expressed in HEK293 cells at 30 uM at -90 mV holding potential by automated patch-clamp technique relative to control; assay type: cell-based
HEK293 = assay: Cytotoxicity against HEK293 cells; assay type: toxicity, cell-based; settings: human
hERG (KCNH2) [2] = biological target: T2, hERG (KCNH2) (Homo sapiens, UniProt Q12809); assay: Inhibition of human ERG expressed in HEK293 cells at 30 uM at -80 mV holding potential by whole-cell patch clamp method; assay type: toxicity, cell-based; settings: HEK293 cells that express hERG
[3] = biological target: T1, Potassium voltage-gated channel subfamily A member 3; assay: Inhibition of Kv1.3 (unknown origin) expressed in HEK293 cells at 10 uM at -90 mV holding potential by automated patch-clamp technique relative to control; assay type: cell-based
hERG (KCNH2) [4] = biological target: T2, hERG (KCNH2); assay: Inhibition of human ERG expressed in HEK293 cells at 10 uM at -80 mV holding potential by whole-cell patch clamp method; assay type: toxicity, cell-based; settings: HEK293 cells that express hERG
Homo sapiens = species on record: Homo sapiens; assay: Selectivity index, ratio of IC50 for human ERG expressed in HEK293 cells to IC50 for Kv1.3 (unknown origin) expressed in HEK293 cells; assay type: cell-based
[5] = biological target: T1, Potassium voltage-gated channel subfamily A member 3; assay: Inhibition of Kv1.3 (unknown origin) expressed in HEK293 cells at -90 mV holding potential by automated patch-clamp technique; assay type: cell-based
[6] = biological target: Voltage-gated inwardly rectifying potassium channel KCNH2 (Homo sapiens, UniProt Q12809); assay: Inhibition of human ERG expressed in HEK293 cells at -80 mV holding potential by whole-cell patch clamp method; assay type: toxicity, cell-based
Voltage-gated inwardly rectifying potassium channel KCNH2, sequence (Q12809 whole entry): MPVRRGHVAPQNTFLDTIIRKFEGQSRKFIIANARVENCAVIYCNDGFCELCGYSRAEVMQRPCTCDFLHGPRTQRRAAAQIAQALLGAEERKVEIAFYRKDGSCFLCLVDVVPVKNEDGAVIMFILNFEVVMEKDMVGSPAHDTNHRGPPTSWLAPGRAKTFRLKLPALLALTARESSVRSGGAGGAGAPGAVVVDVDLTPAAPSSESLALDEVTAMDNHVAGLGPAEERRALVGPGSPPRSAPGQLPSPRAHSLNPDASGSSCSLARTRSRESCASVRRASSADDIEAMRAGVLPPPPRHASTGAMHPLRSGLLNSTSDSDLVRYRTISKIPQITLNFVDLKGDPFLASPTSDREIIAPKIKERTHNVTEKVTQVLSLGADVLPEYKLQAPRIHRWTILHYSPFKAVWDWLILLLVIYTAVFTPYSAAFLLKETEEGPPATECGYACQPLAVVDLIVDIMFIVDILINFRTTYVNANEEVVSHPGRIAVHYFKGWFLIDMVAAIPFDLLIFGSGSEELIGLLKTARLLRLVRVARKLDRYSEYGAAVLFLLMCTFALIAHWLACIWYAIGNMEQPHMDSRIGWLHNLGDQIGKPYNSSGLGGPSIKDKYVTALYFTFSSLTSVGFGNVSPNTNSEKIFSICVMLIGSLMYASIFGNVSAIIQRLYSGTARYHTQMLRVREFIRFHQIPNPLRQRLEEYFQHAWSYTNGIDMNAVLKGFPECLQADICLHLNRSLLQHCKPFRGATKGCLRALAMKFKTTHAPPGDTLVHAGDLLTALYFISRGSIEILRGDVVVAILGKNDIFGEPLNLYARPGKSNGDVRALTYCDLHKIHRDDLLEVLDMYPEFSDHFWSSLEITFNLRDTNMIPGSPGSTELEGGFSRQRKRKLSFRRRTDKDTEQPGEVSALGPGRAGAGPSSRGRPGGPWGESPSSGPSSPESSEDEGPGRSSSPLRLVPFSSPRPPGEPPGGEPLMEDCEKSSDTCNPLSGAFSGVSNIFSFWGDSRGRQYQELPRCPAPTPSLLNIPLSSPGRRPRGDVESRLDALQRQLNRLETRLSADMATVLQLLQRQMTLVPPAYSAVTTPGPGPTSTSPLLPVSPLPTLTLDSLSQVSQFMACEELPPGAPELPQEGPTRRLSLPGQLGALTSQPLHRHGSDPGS

T2 sequence (Q12809 whole entry): as above
T1 sequence (P22001 whole entry): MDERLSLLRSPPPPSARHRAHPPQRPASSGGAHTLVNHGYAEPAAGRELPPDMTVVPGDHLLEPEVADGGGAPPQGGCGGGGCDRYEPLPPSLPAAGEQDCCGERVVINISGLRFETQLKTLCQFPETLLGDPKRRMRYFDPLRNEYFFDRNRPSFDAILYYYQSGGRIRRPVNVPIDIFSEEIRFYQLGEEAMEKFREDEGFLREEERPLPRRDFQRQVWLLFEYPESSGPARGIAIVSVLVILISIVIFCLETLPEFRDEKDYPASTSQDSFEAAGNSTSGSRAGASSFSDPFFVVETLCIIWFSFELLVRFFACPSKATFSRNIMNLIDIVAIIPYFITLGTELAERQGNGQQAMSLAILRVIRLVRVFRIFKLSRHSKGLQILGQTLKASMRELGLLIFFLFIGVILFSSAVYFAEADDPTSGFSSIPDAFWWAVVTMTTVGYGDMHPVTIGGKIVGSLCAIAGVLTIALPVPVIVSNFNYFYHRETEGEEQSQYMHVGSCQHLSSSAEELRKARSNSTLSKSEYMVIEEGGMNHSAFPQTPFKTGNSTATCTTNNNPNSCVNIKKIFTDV

inhibition [1] [%]	inhibition [3] [%]	IC50 [5] [µM]	SMILES	Activity (HEK293)	inhibition at 30 µM (hERG (KCNH2) [2]) [%]	inhibition at 10 µM (hERG (KCNH2) [4]) [%]	Ratio IC50 (Homo sapiens)	IC50 [6] [µM]
21.2	–	–	CC1=C2C=C3CC[C@@H]4C(C)(C)[C@H](O)CC[C@@]4(C)[C@]3(O)C[C@H]2OC1=O	Non-Toxic	–	–	–	–
32.3	–	–	C=C1C[C@@]23CC[C@@H]4C(C)(C)C(=O)CC[C@@]4(C)[C@@H]2C[C@@H]1[C@@H](O)C3=O	Non-Toxic	24.5	–	–	–
72	30.2	–	CC(=O)O[C@@H]1[C@@H](C)/C=C/C(C)(C)C(=O)C[C@@H](OC(C)=O)/C(C)=C/[C@H]2[C@@H](OC(=O)c3ccccc3)[C@H](C)C[C@]12O	Non-Toxic	–	–	–	–
83.5	43.5	–	C/C1=C\[C@H]2[C@@H](OC(=O)c3ccccc3)[C@H](C)C[C@]2(O)[C@H](O)[C@@H](C)/C=C/C(C)(C)C(=O)C[C@H]1O	Non-Toxic	–	–	–	–
10.4	–	–	C=C1C[C@@]23CC[C@@H]4C(C)(C)[C@H](O)CC[C@@]4(C)[C@@H]2C[C@@H]1[C@@H](O)C3=O	Non-Toxic	–	–	–	–
7.1	–	–	CC1(C)C(=O)CC[C@]2(C)[C@@H]1CC[C@@]13CC[C@@H](C[C@H]12)[C@](O)(CO)C3	Non-Toxic	–	–	–	–
14.5	–	–	CC1=C2C(=C[C@H]3[C@]4(C)CC[C@@H](O)C(C)(C)[C@H]4CC[C@]34O[C@H]24)OC1=O	Non-Toxic	–	–	–	–
77.5	42.9	–	CC(=O)O[C@H]1[C@@H](C)/C=C/C(C)(C)C(=O)CC(=O)/C(C)=C/[C@H]2[C@@H](OC(=O)c3ccccc3)[C@H](C)C[C@@]21O	Non-Toxic	–	–	–	–
20.4	–	–	CC1=C2C=C3CC[C@@H]4C(C)(C)[C@H](O)C(=O)C[C@@]4(C)[C@@H]3C[C@H]2OC1=O	Non-Toxic	–	–	–	–
69.3	28.7	–	CC(=O)O[C@@H]1[C@@H](C)/C=C/C(C)(C)C(=O)C[C@@H](O)/C(C)=C/[C@H]2[C@@H](OC(=O)c3ccccc3)[C@H](C)C[C@]12O	Non-Toxic	–	–	–	–
35.1	–	–	Fc1ccc([C@@H]2CCNC[C@H]2COc2ccc3c(c2)OCO3)cc1 [PAROXETINE]	Non-Toxic	–	–	–	–
84.2	59.8	–	CC(=O)O[C@@H]1[C@@H](C)/C=C/C(C)(C)C(=O)C[C@@H](O)/C(C)=C/[C@H]2[C@@H](OC(=O)c3ccccc3)[C@H](C)C[C@]12OC(C)=O	Non-Toxic	75.4	44.6	–	–
89.4	47.6	–	COC(=O)CCC(=O)O[C@@H]1C[C@H]2[C@@H](/C=C(\C)C(=O)[C@@]3(OC(C)=O)C[C@@H](C)[C@H](O)[C@@H]3/C=C/1C)C2(C)C	Non-Toxic	49.7	29.7	–	–
67.5	21.7	–	CC(=O)O[C@]12C[C@@H](C)[C@H](O)[C@@H]1/C=C(\C)[C@H](O)C[C@H]1[C@@H](/C=C(\C)C2=O)C1(C)C	Non-Toxic	–	–	–	–
81.2	55.6	4.3	CC(=O)O[C@]12C[C@@H](C)[C@H](OC(=O)c3ccccc3)[C@@H]1/C=C(\C)[C@H](O)C[C@H]1[C@@H](/C=C(\C)C2=O)C1(C)C	Non-Toxic	40.9	–	> 7	> 30
75.1	39.2	–	CC(=O)O[C@]12C[C@@H](C)[C@H](O)[C@@H]1[C@H]1O[C@]1(C)[C@H](O)C[C@H]1[C@@H](/C=C(\C)C2=O)C1(C)C	Non-Toxic	–	–	–	–
24.4	–	–	CC1=C2C=C3CC[C@@H]4C(C)(C)C(=O)[C@H](O)[C@@]4(C)[C@@H]3C[C@H]2OC1=O	Non-Toxic	19.9	–	–	–
86.5	62.2	–	CC(=O)O[C@@H]1CC(=O)C(C)(C)/C=C/[C@@H](C)[C@@H](O)[C@@]2(OC(C)=O)C[C@@H](C)[C@H](OC(=O)c3ccccc3)[C@@H]2/C=C/1C	Non-Toxic	60.2	36.9	–	–
21	–	–	CC1(C)[C@H](O)CC[C@]2(C)[C@@H]1CC[C@@]13CC[C@@H](C[C@H]12)[C@](O)(CO)C3	Non-Toxic	–	–	–	–
70.6	33.5	–	CC(=O)O[C@]12C[C@@H](C)[C@H](O)[C@@H]1/C=C(\C)[C@H](O)C[C@@H]1[C@@H](/C=C(\C)C2=O)C1(C)C	Non-Toxic	–	–	–	–
17.2	–	–	CC1=C2C=C3CC[C@@H]4C(C)(C)C(=O)CC[C@@]4(C)[C@]3(O)C[C@H]2OC1=O	Non-Toxic	–	–	–	–

SMILES	inhibition [1] [%]	inhibition [3] [%]	IC50 [5] [µM]	Activity (HEK293)	inhibition at 30 µM (hERG (KCNH2) [2]) [%]	inhibition at 10 µM (hERG (KCNH2) [4]) [%]	Ratio IC50 (Homo sapiens)	IC50 [6] [µM]
CC(=O)OCC1=C[C@@H]2C(=O)[C@]3(C=C(C)[C@H](O)[C@@]3(O)[C@@H]1O)[C@H](C)C[C@@H]1[C@H]2C1(C)C	12.5	–	–	Non-Toxic	23.3	–	–	–
CCC/C=C\C=C\C(=O)O[C@@H]1C[C@H]2[C@@H](/C=C(\C)C(=O)[C@@]3(OC(C)=O)C[C@@H](C)[C@H](O)[C@@H]3/C=C/1C)C2(C)C	77.7	39.8	–	Non-Toxic	–	–	–	–
